Experimental data from patent US5620958A, “Bradykinin antagonists” (Coretech, Inc., priority 1994, dated 1997).
Numbered stars: 1 amine (or outer) side, 2 acyl side, 3 side chain; on linkers, the order of the positions; unused ones are H or OH. Bridge positions count the residues as written; N and C are the ends. Square brackets hold non-standard residues; d marks the D form. Peptide text beside a SMILES is read from it. I, II: the chains in the order shown. BMH = O=C1CC([*:1])C(=O)N1CCCCCCN1C(=O)CC([*:2])C1=O; Oic = O=C(O)[C@@H]1C[C@@H]2CCCC[C@@H]2N1; Hyp = O=C(O)[C@@H]1C[C@@H](O)CN1; dTic = O=C(O)[C@H]1Cc2ccccc2CN1

Assays:
[1] = biological target: T1, BK2 receptor (Cavia porcellus, UniProt O70526); test: guinea-pig ileum (GPI) in vitro, antagonism of BK; assay type: cell-based; settings: Table B; read-out: pA2 GUINEA PIG ILEUM (converted)
T1 construct: tested for activity on guinea pig ileum in vitro on the standard tissue bath/strain gauge system; from tissue; host or cells: guinea pig ileum
T1 sequence (O70526 1-372): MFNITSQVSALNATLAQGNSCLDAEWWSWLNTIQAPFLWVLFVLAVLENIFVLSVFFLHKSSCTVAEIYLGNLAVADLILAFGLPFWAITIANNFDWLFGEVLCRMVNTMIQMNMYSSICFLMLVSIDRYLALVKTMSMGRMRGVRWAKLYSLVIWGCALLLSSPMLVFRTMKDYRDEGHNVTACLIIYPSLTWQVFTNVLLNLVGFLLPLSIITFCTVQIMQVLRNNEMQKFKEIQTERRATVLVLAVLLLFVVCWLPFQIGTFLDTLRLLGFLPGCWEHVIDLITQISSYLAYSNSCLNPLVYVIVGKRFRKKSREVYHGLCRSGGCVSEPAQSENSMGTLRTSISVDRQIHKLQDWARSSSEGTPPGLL
Experimental: Thus, in vitro studies were performed on standard assay systems, namely, guinea-pig ileum (GPI), rat uterus (RU) and rabbit jugular vein (RJV). […] The potency of each compound was assessed as a pA2 value according to the method of Arunlakshana & Schild, Br. J. Pharmacol. Chemother., 1.4:48-58 (1959). The pA2 can be defined as the negative logarithm of the molar concentration of the antagonist in the presence of which the potency of the agonist is reduced two-fold, i.e., twice the amount of agonist is required to produce a given response in the presence of, than in the absence of, the antagonist. A high potency of antagonism is indicated by a high pA2 value, i.e., a low concentration of antagonist is effective.
The percentage recovery (% Rec) was also determined for compounds with respect to each assay.
The various compounds identified in Table B below were prepared following the procedure of Example 1 with the Cys moiety introduced into the parent CP-0088 at the position indicated followed by reaction between the sulfhydryl group of the Cys residue and BMH to provide dimers as indicated. The Cys-modified monomers and the resultant dimers were tested for activity on guinea pig ileum in vitro on the standard tissue bath/strain gauge system as before.

[2] = biological target: T2, BK2 receptor (Rattus norvegicus, UniProt P25023); test: cell-based
T2 sequence (P25023 1-396): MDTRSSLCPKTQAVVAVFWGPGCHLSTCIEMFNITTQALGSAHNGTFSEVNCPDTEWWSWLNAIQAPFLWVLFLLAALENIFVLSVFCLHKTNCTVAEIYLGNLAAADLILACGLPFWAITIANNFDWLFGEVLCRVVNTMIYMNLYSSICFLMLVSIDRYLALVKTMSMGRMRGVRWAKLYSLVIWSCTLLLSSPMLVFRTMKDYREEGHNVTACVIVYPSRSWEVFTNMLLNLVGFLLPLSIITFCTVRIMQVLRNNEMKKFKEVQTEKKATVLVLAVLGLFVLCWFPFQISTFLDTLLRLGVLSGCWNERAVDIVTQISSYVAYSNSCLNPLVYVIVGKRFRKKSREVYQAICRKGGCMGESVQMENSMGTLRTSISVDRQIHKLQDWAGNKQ

[3] = biological target: T2, BK2 receptor; settings: for BK2 Rat Uterus pA2: Table L
[4] = biological target: T3, BK1 receptor (Oryctolagus cuniculus, UniProt P48748); test: rabbit aorta in vitro, reversal of des-Arg^9 -BK contraction; assay type: cell-based; settings: for IC50: negative log of molar concentration
T3 construct: when administered to an intact animal; from tissue; host or cells: whole rabbit (systemic arterial blood pressure), LPS-pretreated
T3 sequence (P48748 1-352): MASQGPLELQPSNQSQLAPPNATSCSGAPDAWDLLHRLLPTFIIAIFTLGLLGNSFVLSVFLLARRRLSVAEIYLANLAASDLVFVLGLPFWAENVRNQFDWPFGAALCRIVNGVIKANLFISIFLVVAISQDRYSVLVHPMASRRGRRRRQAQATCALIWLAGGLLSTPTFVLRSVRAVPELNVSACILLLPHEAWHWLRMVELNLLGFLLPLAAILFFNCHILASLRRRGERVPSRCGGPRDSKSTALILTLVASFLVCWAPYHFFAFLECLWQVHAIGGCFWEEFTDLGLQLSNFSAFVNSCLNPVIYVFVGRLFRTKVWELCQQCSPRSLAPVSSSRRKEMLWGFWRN

[5] = biological target: T3, BK1 receptor; test: blood pressure response to BK1 agonist in LPS-pretreated rabbits; assay type: in vivo, rabbit; settings: for OBSERVED ANTAGONIST ACTIVITY BK1: rabbits given LPS (10 μg) 20 hours before
[6] = biological target: T4, BK2 receptor (Oryctolagus cuniculus, UniProt Q28642); test: blood pressure response to BK2 agonist in LPS-pretreated rabbits; assay type: in vivo, rabbit; set-up: key to OBSERVED ANTAGONIST ACTIVITY BK2: +: indicates complete blockade of the blood pressure response to the appropriate agonist; +/-: indicates partial blockade; -: indicates no observable effect at the dose indicated; settings: for OBSERVED ANTAGONIST ACTIVITY BK2: rabbits given LPS (10 μg) 20 hours before
T4 construct: when administered to an intact animal; from tissue; host or cells: whole rabbit (systemic arterial blood pressure), LPS-pretreated
T4 sequence (Q28642 1-367): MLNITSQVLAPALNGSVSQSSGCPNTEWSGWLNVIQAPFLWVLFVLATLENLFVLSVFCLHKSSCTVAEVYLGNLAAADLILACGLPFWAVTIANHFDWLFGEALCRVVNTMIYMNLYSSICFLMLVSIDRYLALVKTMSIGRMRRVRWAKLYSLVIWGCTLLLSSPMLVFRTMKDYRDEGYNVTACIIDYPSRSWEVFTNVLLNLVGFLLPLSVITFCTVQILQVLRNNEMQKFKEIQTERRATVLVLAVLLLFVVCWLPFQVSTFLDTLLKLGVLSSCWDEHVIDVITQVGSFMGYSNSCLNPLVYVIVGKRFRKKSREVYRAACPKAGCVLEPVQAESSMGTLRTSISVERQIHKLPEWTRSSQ

[7] = FIG. 8c, rabbits after endotoxin pretreatment

Compound	Kb [2]	IC50 ([4]; Table L)	OBSERVED ANTAGONIST ACTIVITY BK1 ([5]; 1 μg kg^-1 min^-1)	OBSERVED ANTAGONIST ACTIVITY BK1 ([5]; 3 μg kg^-1 min^-1)	OBSERVED ANTAGONIST ACTIVITY BK1 ([5]; 10 μg kg^-1 min^-1)	OBSERVED ANTAGONIST ACTIVITY BK2 ([6]; 1 μg kg^-1 min^-1)	OBSERVED ANTAGONIST ACTIVITY BK2 ([6]; 3 μg kg^-1 min^-1)	OBSERVED ANTAGONIST ACTIVITY BK2 ([6]; 10 μg kg^-1 min^-1)	BK1 antagonism [4]	activity in the rat uterus BK2 receptor system [3]	BK2 Rat Uterus pA2 [3]	other results
CC(C)C[C@H](NC(=O)[C@@H](Cc1ccccc1)NC(=O)[C@H](CO)NC(=O)[C@H](Cc1ccccc1)NC(=O)CNC(=O)[C@@H]1C[C@@H](O)CN1C(=O)[C@@H]1CCCN1C(=O)[C@H](CS)NC(=O)[C@H](N)CCCNC(=N)N)C(=O)N[C@@H](CCCNC(=N)N)C(=O)O [CP-0141] (HELM PEPTIDE1{[dR].C.P.[Hyp].G.F.S.[dF].L.R}$$$$V2.0)	> 1000 nM											Kb [1]: 794 nM; % REC MONOMER ([3]; Table C, rat uterus): 100%
CC(C)C[C@H](NC(=O)[C@@H]1CCCN1C(=O)[C@H](CO)NC(=O)[C@H](Cc1ccccc1)NC(=O)CNC(=O)[C@@H]1C[C@@H](O)CN1C(=O)[C@@H]1CCCN1C(=O)[C@H](CS)NC(=O)[C@H](N)CCCNC(=N)N)C(=O)O [CP-0362] (HELM PEPTIDE1{[dR].C.P.[Hyp].G.F.S.P.L}$$$$V2.0; N-terminus and C-terminus assumed)												IC50 ([4]; Table K): 1000 nM; BK2 (RAT UTERUS) pA2 ([3]; Table K): Inactive
CC(C)C[C@H](NC(=O)[C@@H]1CCCN1C(=O)[C@H](CO)NC(=O)[C@H](Cc1ccccc1)NC(=O)CNC(=O)[C@@H]1C[C@@H](O)CN1C(=O)[C@@H]1CCCN1C(=O)[C@H](CSC1CC(=O)N(CCCCCCN2C(=O)CC(SC[C@H](NC(=O)[C@H](Cc3ccccc3)NC(=O)CNC(=O)[C@@H]3C[C@@H](O)CN3C(=O)[C@@H]3CCCN3C(=O)[C@H](CCCNC(=N)N)NC(=O)[C@H](N)CCCNC(=N)N)C(=O)N[C@H](Cc3ccccc3)C(=O)N[C@@H](CC(C)C)C(=O)N[C@@H](CCCNC(=N)N)C(=O)O)C2=O)C1=O)NC(=O)[C@H](N)CCCNC(=N)N)C(=O)O (stereo partly shown) [CP-0364] (HELM PEPTIDE1{[dR].R.P.[Hyp].G.F.C.[dF].L.R}|PEPTIDE2{[dR].C.P.[Hyp].G.F.S.P.L}|CHEM1{[O=C1CC([*:1])C(=O)N1CCCCCCN1C(=O)CC([*:2])C1=O]}$PEPTIDE1,CHEM1,7:R3-1:R1|PEPTIDE2,CHEM1,2:R3-1:R2$$$V2.0; N-terminus and C-terminus assumed)	5.01 nM	31.6 nM	+	+	+	+	+	+				block of BK1-mediated hypotensive response [5, 7]: capable of blocking the response profile to both agonists simultaneously; block of BK2-mediated hypotensive response [6, 7]: capable of blocking the response profile to both agonists simultaneously
N=C(N)NCCC[C@@H](N)C(=O)N[C@@H](CCCNC(=N)N)C(=O)N1CCC[C@H]1C(=O)N1C[C@H](O)C[C@H]1C(=O)NCC(=O)N[C@@H](Cc1ccccc1)C(=O)N[C@@H](CSC1CC(=O)N(CCCCCCN2C(=O)CC(SC[C@H](NC(=O)[C@H](N)CCCNC(=N)N)C(=O)N3CCC[C@H]3C(=O)N3C[C@H](O)C[C@H]3C(=O)NCC(=O)N[C@@H](Cc3ccccc3)C(=O)N[C@@H](CO)C(=O)N3Cc4ccccc4C[C@@H]3C(=O)N3[C@H](C(=O)O)C[C@@H]4CCCC[C@@H]43)C2=O)C1=O)C(=O)N1Cc2ccccc2C[C@@H]1C(=O)N1[C@H](C(=O)N[C@@H](CCCNC(=N)N)C(=O)O)C[C@@H]2CCCC[C@@H]21 (stereo partly shown) [CP-0365] (I: H-[dR]RP[Hyp]GFC[dTic][Oic]R-OH / II: H-[dR]CP[Hyp]GFS[dTic][Oic]-OH; linker I:7-II:2 via BMH; N-terminus and C-terminus assumed)	3.98 nM	39.8 nM	-	+	+	-	+	+				
CC(C)C[C@H](NC(=O)[C@@H]1CCCN1C(=O)[C@H](CO)NC(=O)[C@H](Cc1ccccc1)NC(=O)CNC(=O)[C@@H]1C[C@@H](O)CN1C(=O)[C@@H]1CCCN1C(=O)[C@H](CSC1CC(=O)N(CCCCCCN2C(=O)CC(SC[C@H](NC(=O)[C@H](Cc3ccccc3)NC(=O)CNC(=O)[C@@H]3C[C@@H](O)CN3C(=O)[C@@H]3CCCN3C(=O)[C@H](CCCNC(=N)N)NC(=O)[C@H](N)CCCNC(=N)N)C(=O)N[C@H](Cc3ccccc3)C(=O)N[C@@H](CC(C)C)C(=O)N[C@@H](CCCNC(=N)N)C(=O)O)C2=O)C1=O)NC(=O)[C@@H](N)CCCCN)C(=O)O (stereo partly shown) [CP-0382] (HELM PEPTIDE1{[dR].R.P.[Hyp].G.F.C.[dF].L.R}|PEPTIDE2{K.C.P.[Hyp].G.F.S.P.L}|CHEM1{[O=C1CC([*:1])C(=O)N1CCCCCCN1C(=O)CC([*:2])C1=O]}$PEPTIDE1,CHEM1,7:R3-1:R1|PEPTIDE2,CHEM1,2:R3-1:R2$$$V2.0; N-terminus and C-terminus assumed)		631 nM							BK1 antagonism was retained	substantial partial agonism	Agonist	
CC(C)C[C@H](NC(=O)[C@@H]1CCCN1C(=O)[C@H](CO)NC(=O)[C@H](Cc1cccs1)NC(=O)CNC(=O)[C@@H]1CCCN1C(=O)[C@@H]1CCCN1C(=O)[C@H](CSC1CC(=O)N(CCCCCCN2C(=O)CC(SC[C@H](NC(=O)[C@H](Cc3ccccc3)NC(=O)CNC(=O)[C@@H]3C[C@@H](O)CN3C(=O)[C@@H]3CCCN3C(=O)[C@H](CCCNC(=N)N)NC(=O)[C@H](N)CCCNC(=N)N)C(=O)N[C@H](Cc3ccccc3)C(=O)N[C@@H](CC(C)C)C(=O)N[C@@H](CCCNC(=N)N)C(=O)O)C2=O)C1=O)NC(=O)[C@@H](N)CCCCN)C(=O)O (stereo partly shown) [CP-0383] (HELM PEPTIDE1{[dR].R.P.[Hyp].G.F.C.[dF].L.R}|PEPTIDE2{K.C.P.P.G.[O=C([C@H](Cc1cccs1)N[*:1])[*:2]].S.P.L}|CHEM1{[O=C1CC([*:1])C(=O)N1CCCCCCN1C(=O)CC([*:2])C1=O]}$PEPTIDE1,CHEM1,7:R3-1:R1|PEPTIDE2,CHEM1,2:R3-1:R2$$$V2.0)		15.8 nM							BK1 antagonism was retained	substantial partial agonism	Agonist	
